From US10435399B2, “HDAC6 inhibitory heterocyclic compound” (TAKEDA PHARMACEUTICAL COMPANY LIMITED, priority 2017, dated 2019)

Key:
[1] = system: tauopathy mouse model; conditions: cited from earlier work
[2] = system: bone-marrow cells; assay: Micronucleus test in rats (bone-marrow cells); format: in vivo, rats (Crl:CD(SD))
Description: Combination Assay of Micronucleus Test and Comet Assay in Rats […] Bone-marrow smear for micronucleus analysis was prepared as follows. Femur was cut at both ends, and washed with fetal bovine serum (FBS) in a centrifuging tube, and the obtained bone-marrow fluid was centrifuged for 5 min at room temperature. The supernatant was removed, and the cell sediment was suspended in the remaining small amount of the supernatant. A part of the suspension was dropped on a glass slide, and a cover glass was placed thereon to give a bone-marrow smear. The smear was dried well, and fixed with methanol for 5 min. The bone-marrow smear of negative control, that of treatment groups as well as the previously prepared bone-marrow smear of positive control group were encoded, and observed by the blind method. An acridine orange solution (40 μg/mL) was dropped (several drops) to the smear just before observation, and a cover glass was placed thereon. […] In addition, as an index of growth inhibitory effect on bone-marrow cell, total of 500 erythrocytes [immature erythrocytes+mature erythrocytes (ME)] per individual were observed, and immature erythrocyte rate (IE %) relative to the total number of erythrocytes was calculated.

[3] = system: liver and glandular stomach cells; assay: Comet assay in rats (liver and glandular stomach); format: in vivo, rats (Crl:CD(SD)); conditions: 3 days, test article = compound of Example 489
Description: Combination Assay of Micronucleus Test and Comet Assay in Rats
The compound of Example 489 at doses of 1000 and 2000 mg/kg was orally administered to 8 to 9-week-old rats (Crl:CD(SD), five/group) once daily for 3 days, and micronucleus induction was evaluated in bone-marrow cells, and DNA damage was evaluated by DNA fragmentation of cell nucleus in the liver and glandular stomach.
Sample for comet assay was obtained from liver and glandular stomach by the following procedures. A part of left lateral lobe of liver was washed well with a cooled mincing buffer solution (Hanks' balanced salt solution containing 20 mmol/L EDTA and 10 vol % DMSO, pH7.5), and minced finely with dissecting scissors. This sample was kept on ice for 15 to 30 seconds, the precipitated large cell mass was removed, and the obtained cell suspension was kept on ice. Glandular stomach was added to a cooled mincing buffer solution, and kept on ice for 15 to 30 min. Then, the surface epithelium was removed by scraping gently twice, the stomach mucosa was washed well with a cooled mincing buffer solution, and the mucosa surface was taken out by scraping carefully four times or five times. This was kept on ice for 15 to 30 seconds, the precipitated large cell mass was removed, and the obtained cell suspension was kept on ice.
The liver and glandular stomach cell suspensions prepared by the above-mentioned procedures were added to 0.5 w/v % low-melting agarose so that the concentration became 10 vol % or less, 40 μL of the suspension was dropped to MAS-coated slide (Matsunami Glass Ind., Ltd.), and fixed to give a slide sample. The slide sample was immersed in a cooled cell lysate [an aqueous solution containing 2.5 mol/L sodium chloride, 100 mmol/L EDTA, 10 mmol/L tris(hydroxymethyl)aminomethane, 10 vol % DMSO and 1 vol % Triton X-100, pH 10.0], and kept overnight under light shielding in a refrigerator (2 to 8° C.).
The slide sample was washed with ultrapure water, set at random into an electrophoresis apparatus filled with an alkali buffer solution (an aqueous solution containing 0.3 mol/L sodium hydroxide and 1 mmol/L EDTA, pH >13) for electrophoresis. After confirming that the sample was completely immersed, the sample was left for 20 min to unwind the strands. Next, electrophorese was performed at a constant voltage of 0.7 to 1 V/cm (current is set about 0.30 A) for 20 min (the electrophoresis apparatus was kept on ice so that the alkali buffer solution for electrophoresis was kept at a constant temperature of 10° C. or below, during from the dissociation of the strands to electrophoresis). After electrophoresis, the slide sample was immersed in a neutralizing solution [0.4 mol/L aqueous tris(hydroxymethyl)aminomethane solution, pH 7.5] for 5 min or longer. Then, the slide sample was immersed in ethanol for 5 min or longer, and air-dried. […] The slide samples for negative control, test compound and positive control groups were encoded, and analyzed by the blind method. In each individual animal, 150 of suitable cells were selected for observation using a biological microscope with fluorescence attachment at 200-fold final magnification, and analyzed by image analysis software (Comet Assay IV, Perceptive Instruments Ltd.). The degree of the DNA damage was evaluated by % tail intensity calculated automatically from image analysis software. The median of the % tail intensity was calculated in each slide sample, and the average of the median was calculated in each individual. […]

[4] = system: TK6 cells; assay: γH2AX assay using TK6 cells; format: cell-based, Human; conditions: 4 hr treatment, up to 100 μM
Description: γH2AX Assay Using TK6 Cells
Human lymphoblasts-derived TK6 cells were treated with the compounds of Examples 489, 512 or 519 at 0, 10, 30 or 100 μmol/L (final concentration) for 4 hr, and the presence or absence of DNA damage was evaluated by measuring phosphorylation of histone H2AX (γH2AX) as a marker. In addition, cytotoxicity after 24-hr treatment was also evaluated.
Exponentially growing TK6 cells were prepared at the cell density of 4×10^5 cells/mL in a culture medium, and was added to a 96-well plate by 100 μL/well. A test compound solution (2% DMSO) prepared using a culture solution, having twice the concentration on the above-mentioned final concentrations, was added thereto by 100 μL/well. This plate was incubated at 37° C., the cell suspension after 4 hr was sampled, and stained using In Vitro MultiFlow™ DNA Damage Kit (Litron), and H2AX phosphorylation level in each nucleus was measured using a flow cytometer and average value was calculated. The H2AX phosphorylation level in the concurrent vehicle control group was also measured and average value was calculated. The rate of change in the H2AX phosphorylation level in the treatment groups relative to that in the control group was calculated, and Dunnett test (significance level: two-tailed 1%) was performed. In addition, the cell suspension after 24 hr treatment was sampled, and the nucleus number was measured, and variation in the nucleus number in the treatment groups relative to that in the concurrent vehicle control group was used as an indicator of cytotoxicity. […] Therefore, the potential of the compounds for DNA strand breakage was judged to be negative under this test condition.

[5] = target: T1, HDAC6 enzyme (Homo sapiens, UniProt Q9UBN7); assay: HDAC6 enzyme inhibitory activity (HDAC-Glo I/II Assay kit); format: biochemical; conditions: 10 μM; wells without enzyme = 100% inhibition; read-out: HDAC6 inhibitory rate (%) (10 μM)
T1 construct: transducing full length HDAC6 gene into Sf-9 insect cells; GST; purchased SignalChem; host or cells: Sf-9 insect cells
T1 sequence (Q9UBN7 1-1215): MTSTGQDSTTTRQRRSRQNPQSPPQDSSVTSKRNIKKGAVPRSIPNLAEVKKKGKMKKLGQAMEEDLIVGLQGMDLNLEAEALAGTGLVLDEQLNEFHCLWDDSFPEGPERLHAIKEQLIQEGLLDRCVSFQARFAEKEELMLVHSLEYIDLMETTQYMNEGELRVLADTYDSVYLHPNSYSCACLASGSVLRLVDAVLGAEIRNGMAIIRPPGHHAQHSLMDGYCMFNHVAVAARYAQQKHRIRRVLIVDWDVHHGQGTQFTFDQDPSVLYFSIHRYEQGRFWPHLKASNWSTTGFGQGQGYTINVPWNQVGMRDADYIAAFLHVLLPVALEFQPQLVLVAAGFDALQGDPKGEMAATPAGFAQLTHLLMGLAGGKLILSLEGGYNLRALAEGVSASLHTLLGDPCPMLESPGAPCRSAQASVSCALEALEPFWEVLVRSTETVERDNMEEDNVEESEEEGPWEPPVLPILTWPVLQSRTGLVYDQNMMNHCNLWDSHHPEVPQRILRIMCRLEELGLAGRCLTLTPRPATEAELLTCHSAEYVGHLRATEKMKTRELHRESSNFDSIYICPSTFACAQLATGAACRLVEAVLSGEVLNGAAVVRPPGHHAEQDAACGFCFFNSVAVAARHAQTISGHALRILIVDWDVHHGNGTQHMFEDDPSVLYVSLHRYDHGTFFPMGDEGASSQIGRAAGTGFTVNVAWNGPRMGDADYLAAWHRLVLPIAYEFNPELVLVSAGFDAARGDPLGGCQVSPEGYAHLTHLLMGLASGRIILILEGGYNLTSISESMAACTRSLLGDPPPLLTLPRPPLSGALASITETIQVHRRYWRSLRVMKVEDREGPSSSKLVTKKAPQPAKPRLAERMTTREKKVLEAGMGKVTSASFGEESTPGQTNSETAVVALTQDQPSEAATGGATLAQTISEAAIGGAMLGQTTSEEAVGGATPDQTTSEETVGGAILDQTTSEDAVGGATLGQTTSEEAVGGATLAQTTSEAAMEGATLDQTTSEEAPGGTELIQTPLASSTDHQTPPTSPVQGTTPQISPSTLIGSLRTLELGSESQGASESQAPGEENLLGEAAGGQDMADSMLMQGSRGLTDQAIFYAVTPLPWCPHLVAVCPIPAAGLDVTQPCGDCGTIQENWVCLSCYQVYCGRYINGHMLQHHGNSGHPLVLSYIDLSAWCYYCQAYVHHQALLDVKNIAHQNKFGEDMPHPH
How it was run: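 Test compound is preincubated 60 min at RT with full-length insect-cell HDAC6 in Tris-HCl pH 7.5 with 135 mM NaCl and 1 mM MgCl2. A 20 min room-temperature HDAC-Glo reaction follows, with luminescent read-out.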

[6] = system: acetylated tubulin in brain (hippocampus); assay: Increase in acetylated tubulin in brain (hippocampus ELISA); format: in vivo, C57BL/6J mouse; conditions: mouse hippocampus, oral 3 mg/kg, 1 h after administration, vs vehicle
Description: Increase in Acetylated Tubulin in Brain
A drug was suspended in 0.5% methyl cellulose to prepare a suspension for administration, having a concentration shown in Table 3. The suspension was orally administered into 8 to […] male C57BL/6J mouse, and after the passage of the time shown in Table 3, the brain was taken out, and hippocampus was obtained. The hippocampus was homogenized under RIPA extract (Wako) to which protease inhibitor (Thermo) and phosphatase inhibitor (Thermo) were added, and centrifuged in 15,000 g for 15 min to prepare a protein extract. The acetylated tubulin and total tubulin in the extract were detected by the following ELISA method. Tubulin antibody (Sigma) was immobilized on 96-well plate (Microlite2+, Thermo), and the plate was stored at 4° C. […] The plate was washed, HRP substrate was added thereto, and the luminescence was measured using a plate reader. The acetylated tubulin and total tubulin were quantified from logistics curve based on dilution series using the mouse hippocampus tissue extract, and the acetylated tubulin relative to total tubulin was calculated, and evaluated as an relative tubulin acetylation level. […] After F test for vehicle group and drug group, the significant difference between the two groups was analyzed by Student t-test or Welch test (indicated as * p<0.05, ** p<0.01). […]

## CN1CCc2c(c3ccccc3n2Cc2ccc(C(=O)NO)cc2)C1 [Tubastatin A]
[1]
  acetylation of tubulin: increases acetylation of tubulin
  therapeutic effectiveness: shows therapeutic effectiveness

## O=P1(N(CCCl)CCCl)NCCCO1 (stereo not shown) [cyclophosphamide]
[2]; rat bone marrow, positive control 20 mg/kg/day
  micronucleated immature erythrocytes incidences (MNIE %), mean ± SD: ↑2.77 ± 0.88 %

## CC[C@@]1(O)C(=O)OCc2c1cc1n(c2=O)Cc2cc3cc4c(cc3nc2-1)OCO4 [test article]
[2]; rat, in vivo, po, 1000 mg/kg/day
  micronucleated immature erythrocytes incidences (MNIE %), mean ± SD: 0.10 ± 0.04%
[2]; rat, in vivo, po, 2000 mg/kg/day
  micronucleated immature erythrocytes incidences (MNIE %), mean ± SD: 0.10 ± 0.03%
[3]; rat liver, 1000 mg/kg/day oral
  % tail DNA, mean ± SD: 0.08 ± 0.03%
[3]; rat liver, 2000 mg/kg/day oral
  % tail DNA, mean ± SD: 0.11 ± 0.04%
[3]; rat stomach, 1000 mg/kg/day oral
  % tail DNA, mean ± SD: 0.59 ± 0.22%
[3]; rat stomach, 2000 mg/kg/day oral
  % tail DNA, mean ± SD: 0.48 ± 0.21%

## CC(F)(F)C(=O)N[C@H]1[C@H](N2Cc3ccc(-c4nnc(C(F)F)o4)cc3C2=O)CCCC1(F)F [Example 512, N-((1S,6R)-6-(6-(5-(difluoromethyl)-1,3,4-oxadiazol-2-yl)-1-oxo-1,3-dihydro-2H-isoindol-2-yl)-2,2-difluorocyclohexyl)-2,2-difluoropropanamide]
[4]
  histone H2AX phosphorylation (γH2AX) resulted from DNA strand breakage: did not induce histone H2AX phosphorylation
  potential for DNA strand breakage (judgement): negative
[5]
  inhibition at 10 µM: 99%
[6]
  relative tubulin acetylation level (acetylated tubulin relative to total tubulin): increase in significant tubulin acetylation level was observed

## CC(F)(F)C(=O)N[C@H]1[C@H](N2Cc3ncc(-c4nnc(C(F)F)o4)cc3C2=O)CCCC1(F)F [Example 598, N-((1S,6R)-6-(3-(5-(difluoromethyl)-1,3,4-oxadiazol-2-yl)-5-oxo-5,7-dihydro-6H-pyrrolo[3,4-b]pyridin-6-yl)-2,2-difluorocyclohexyl)-2,2-difluoropropanamide]
[4]
  histone H2AX phosphorylation (γH2AX) resulted from DNA strand breakage: did not induce histone H2AX phosphorylation
  potential for DNA strand breakage (judgement): negative
[5]
  inhibition at 10 µM: 100%
